Legend:
MATCH [1] = assay: Greenhouse trial, PE application with different irrigation variations (test method 6); type: in vivo, Matricaria chamomilla; settings: g of AS/ha: (A) 120, (B) 1200, (C) 90, mixture 120 + 1200 + 90
Experimental: (§1) In the standard design of the test, seeds of various broad-leaved weed and weed grass biotypes (origins) were sown in a 8-13 cm diameter pot filled with natural soil of a standard field soil (loamy silt; non-sterile) and covered with a covering soil layer of about 1 cm. The pots were then cultivated in a greenhouse (12-16 h of light, temperature day 20-22° C., night 15-18° C.) until the time of application. The pots were treated on a laboratory track sprayer with spray liquors comprising the compositions according to the invention, mixtures of the prior art or components used individually. Application of the active compounds or active compound combinations formulated as WG, WP, EC or otherwise was carried out at the appropriate growth stages of the plants. The application rate for the spray application was 100-600 l of water/ha. After the treatment, the plants were returned to the greenhouses.
(§2) About 3 weeks after the application, the soil action or/and foliar action was assessed visually according to a scale of 0-100% in comparison to an untreated comparative group: 0%=no noticeable effect compared to the untreated comparative group; 100%=full effect compared to the untreated comparative group.
(notes: the term “seeds” also includes vegetative propagation forms such as, for example, rhizome pieces; abbreviations used: h light=hours of illumination, g of AS/ha=gram of active substance per hectare, l/ha=liter per hectare, S=sensitive, R=resistant) • 1. Pre-emergence action against weeds: seeds of various broad-leaved weed and weed grass biotypes (origins) were sown in a 8-13 cm diameter pot filled with natural soil of a standard field soil (loamy silt; non-sterile) and covered with a covering soil layer of about 1 cm. The pots were then cultivated in a greenhouse (12-16 h of light, temperature day 20-22° C., night 15-18° C.) until the time of application. […]

LOLPE [2] = assay: Greenhouse trial, PE application, pre-emergence action against weeds (test method 1); type: in vivo, Lolium perenne; settings: g of AS/ha: (A) 90, (B) 1200, (C) 90, mixture 90 + 1200
Experimental: as §1
as §2, with “group. […]” for “group.”

LOLPE [3] = assay: Greenhouse trial, pre-sowing application 7 days prior to sowing (test method 5); type: in vivo, Lolium perenne; settings: g of AS/ha: (A) 90, (B) 1200, (C) 90, mixture 90 + 1200
Experimental: as §1
as §2, with “group. […]” for “group.”

LOLPE [4] = assay: Greenhouse trial, PO application, post-emergence action against weeds (test method 2); type: in vivo, Lolium perenne; settings: g of AS/ha: (A) 120, (B) 1200, (C) 120, mixture 120 + 1200 + 120
Experimental: as §1
as §2, with “group. […]” for “group.”

STEME = assay: Greenhouse trial, PE application on sensitive and resistant biotypes (test method 8); type: in vivo, Stellaria media; settings: g of AS/ha: (A) 90, (B) 1200, (C) 90, mixture 90 + 1200 + 90, iodosulfuron 10
Experimental: as §1
as §2, with “group. […]” for “group.”

HORVS [5] = assay: Greenhouse trial, PO application, selective post-emergence action on crop (test method 4); type: in vivo, Hordeum vulgare, summer barley; settings: g of AS/ha: (A) 120, (B) 1200, (C) 120, mixture 120 + 1200 + 120
Experimental: as §1
as §2, with “group. […]” for “group.”

HORVS [6] = assay: Greenhouse trial, activity with different soil types; type: in vivo, Hordeum vulgare, summer barley; settings: g of AS/ha: (A) 120, (B) 1200, (C) 90, mixture 120 + 1200 + 90
Experimental: as §1, §2
(§3) (notes: the term “seeds” also includes vegetative propagation forms such as, for example, rhizome pieces; abbreviations used: h light=hours of illumination, g of AS/ha=gram of active substance per hectare, l/ha=liter per hectare, S=sensitive, R=resistant) • 1. Pre-emergence action against weeds: seeds of various broad-leaved weed and weed grass biotypes (origins) were sown in a 8-13 cm diameter pot filled with natural soil of a standard field soil (loamy silt; non-sterile) and covered with a covering soil layer of about 1 cm. The pots were then cultivated in a greenhouse (12-16 h of light, temperature day 20-22° C., night 15-18° C.) until the time of application. The pots were treated at the BBCH stage 00-10 of the seeds/plants on a laboratory track sprayer with spray liquors comprising the compositions according to the invention, mixtures or components used individually, as WG, WP, EC or other formulations. The application rate for the spray application was 100-600 l of water/ha. After the treatment, the plants were returned to the greenhouses and, when required, treated with fertilizer and watered. • 2. Post-emergence action against weeds: seeds of various broad-leaved weed and weed grass biotypes (origins) were sown in a 8-13 cm diameter pot filled with natural soil of a standard field soil (loamy silt; non-sterile) and covered with a covering soil layer of about 1 cm. The pots were then cultivated in a greenhouse (12-16 h of light, temperature day 20-22° C., night 15-18° C.) until the time of application. The pots were treated at various BBCH stages between 11-25 of the seeds/plants, i.e. generally between two to three weeks after the start of the cultivation, on a laboratory track sprayer with spray liquors comprising the compositions according to the invention, mixtures or components used individually, as WG, WP, EC or other formulations. The application rate for the spray application was 100-600 l of water/ha. After the treatment, the plants were returned to the greenhouses and, when required, treated with fertilizer and watered. • 3. […]

TRZAS = assay: Greenhouse trial, PE application with different irrigation variations (test method 6); type: in vivo, Triticum aestivum, summer wheat; settings: g of AS/ha: (A) 120, (B) 1200, (C) 90, mixture 120 + 1200 + 90
Experimental: as §1, §2
(notes: the term “seeds” also includes vegetative propagation forms such as, for example, rhizome pieces; abbreviations used: h light=hours of illumination, g of AS/ha=gram of active substance per hectare, l/ha=liter per hectare, S=sensitive, R=resistant) • 1. Pre-emergence action against weeds: seeds of various broad-leaved weed and weed grass biotypes (origins) were sown in a 8-13 cm diameter pot filled with natural soil of a standard field soil (loamy silt; non-sterile) and covered with a covering soil layer of about 1 cm. The pots were then cultivated in a greenhouse (12-16 h of light, temperature day 20-22° C., night 15-18° C.) until the time of application. The pots were treated at the BBCH stage 00-10 of the seeds/plants on a laboratory track sprayer with spray liquors comprising the compositions according to the invention, mixtures or components used individually, as WG, WP, EC or other formulations. The application rate for the spray application was 100-600 l of water/ha. After the treatment, the plants were returned to the greenhouses and, when required, treated with fertilizer and watered. • 2. Post-emergence action against weeds: seeds of various broad-leaved weed and weed grass biotypes (origins) were sown in a 8-13 cm diameter pot filled with natural soil of a standard field soil (loamy silt; non-sterile) and covered with a covering soil layer of about 1 cm. The pots were then cultivated in a greenhouse (12-16 h of light, temperature day 20-22° C., night 15-18° C.) until the time of application. […]

MATCH [7] = assay: Greenhouse trial, activity with different soil types; type: in vivo, Matricaria chamomilla; settings: g of AS/ha: (A) 120, (B) 1200, (C) 90, mixture 120 + 1200 + 90
Experimental: as §1, §2, §3

## CCC(CC)Nc1c([N+](=O)[O-])cc(C)c(C)c1[N+](=O)[O-] [(B) pendimethalin, N-(1-ethylpropyl)-3,4-dimethyl-2,6-dinitrobenzenamine]
MATCH [1]; irrigation from above
  activity MATCH (visual, scale 0-100%): 30%
MATCH [1]; irrigation from below
  activity MATCH (visual, scale 0-100%): 18%
LOLPE [2]
  activity LOLPE (visual, scale 0-100%): 10%
LOLPE [3]
  activity LOLPE (visual, scale 0-100%): 80%
LOLPE [4]
  activity LOLPE (visual, scale 0-100%): 0%
STEME; resistant biotype
  activity STEME resistant (visual, scale 0-100%): 10%
STEME; sensitive biotype
  activity STEME sensitive (visual, scale 0-100%): 70%
HORVS [5]
  activity on crop plant HORVS (visual, scale 0-100%): 10%
HORVS [6]; IU soil
  activity on crop plant HORVS IU soil (visual, scale 0-100%): 20%
HORVS [6]; IU/EC73 soil versus IU soil
  Difference (of the soil types), HORVS: −20%
HORVS [6]; IU/EC73 soil
  activity on crop plant HORVS IU/EC73 soil (visual, scale 0-100%): 0%
TRZAS; irrigation from above
  activity on crop plant TRZAS (visual, scale 0-100%): 50%
TRZAS; irrigation from below
  activity on crop plant TRZAS (visual, scale 0-100%): 0%
MATCH [7]; IU soil
  activity MATCH IU soil (visual, scale 0-100%): 10%
MATCH [7]; IU/EC73 soil versus IU soil
  Difference of the soil types, MATCH: −10%
MATCH [7]; IU/EC73 soil
  activity MATCH IU/EC73 soil (visual, scale 0-100%): 0%

From patent US20110152092A1, “Herbicidal compositions comprising flufenacet” (Bayer CropScience AG, priority 2009, published 2011)
